According to patent US10526292B2 (Parion Sciences, Inc., priority 2012, dated 2020):

How the values were obtained:
ExLac rats = assay: Tear volume in rat model of dry eye disease (lacrimal gland excision, ExLac Model); assay type: in vivo, Sprague Dawley rats; details: 5 μl test article solution per eye, tear volume by ZoneQuick thread over 6 h
Experimental: The effects of compounds on tear volume was assessed in a rat model of dry eye disease in which Sprague Dawley rats undergo surgical lacrimal gland excision (ExLac Model) to reduce normal tear volume. The lacrimal excision reduces normal tear volume by ˜50% (Table 2).
Both the ipsilateral and contralateral eyes were dosed with 5 μl of test article solution. Tear production was measured using the ZoneQuick cotton thread with impregnated phenol red dye. The folded end of the thread was held in the lateral-ventral conjunctival cul-de-sac for 10 seconds. The length of tear wicking onto the thread was determined by measuring the length of the thread that changes color from yellow to red. Use of a stereomicroscope was assist in the accurate measurement (recorded in millimeters) of the wicking/color change. Tear volume was assessed pre-dose, and 15, 30, 60, 120, and 360 minute post-dose. For reference, the effect of a saline vehicle is shown for ExLac rats and normal (no lacrimal excision surgery) rats.

rats = details: topical addition; cited from earlier work
[1] = Confocal microscopy assay of amiloride congener transport; assay type: in vitro ADME; details: applied to apical (epithelial) surface of mouse corneas, one hour at 37 C
From the text: Serial x-y images were obtained one hour post-drug addition by confocal microsopy.

rabbits = details: topical addition; cited from earlier work
[2] = In vitro drug metabolism: hepatocyte stability, dog; assay type: in vitro ADME; details: dog hepatocyte suspension, 10 μM, 37° C., up to six hours
Experimental: (§1) The metabolic stability of 9 and 15 was assessed in plasma (rat, rabbit, dog and human) and hepatocytes (rat and dog). Compounds were added either directly to plasma or to hepatocyte suspensions at a final concentration of 2.5 or 10 μM, respectively, and incubated at 37° C. for up to six hours. Aliquots were removed at various time points and quenched. The amount of parent compound was quantified via UPLC-fluorescence analysis. The amount of parent compound remaining was calculated based on the total peak area at the time of sampling divided by the total peak area at initiation.

[3] = In vitro drug metabolism: hepatocyte stability, rat; assay type: in vitro ADME; details: rat hepatocyte suspension, 10 μM, 37° C., up to six hours
Experimental: as §1

SMILES | 6 h Ocular Hydration (AUC0-6) (ExLac rats) | other results
N=C(N)NCCCC[C@H](N)C(=O)NCCCN(CCCN)CCOc1ccc(CCCCNC(=N)NC(=O)c2nc(Cl)c(N)nc2N)cc1 [Compound 51, (S)-3,5-diamino-N—(N-(4-(4-(2-((3-(2-amino-6-guanidinohexanamido)propyl)(3-aminopropyl)amino)ethoxy)phenyl)butyl)carbamimidoyl)-6-chloropyrazine-2-carboxamide] | 38.0 | –
N=C(N)NCCCC[C@H](NC[C@H](O)[C@@H](O)[C@H](O)[C@H](O)CO)C(=O)NCCCN(CCCNC(=O)[C@H](CCCCNC(=N)N)NC[C@H](O)[C@@H](O)[C@H](O)[C@H](O)CO)CCOc1ccc(CCCCNC(=N)NC(=O)c2nc(Cl)c(N)nc2N)cc1 [Compound 42, (S,R,R,R,2S,2′S)—N,N′-(3,3′-(2-(4-(4-(3-(3,5-diamino-6-chloropyrazine-2-carbonyl)guanidino)butyl)phenoxy)ethylazanediyl)bis(propane-3,1-diyl))bis(6-guanidino-2-((2S,3R,4R,5R)-2,3,4,5,6-pentahydroxyhexylamino)hexanamide)] | 52.3 | –
N=C(N)NCCCC[C@@H](N)C(=O)NCCCN(CCCNC(=O)[C@@H](N)CCCCNC(=N)N)CCOc1ccc(CCCCNC(=N)NC(=O)c2nc(Cl)c(N)nc2N)cc1 [Compound 90, 3,5-diamino-N—(N-(4-(4-(2-((3-((R)-2-amino-6-guanidinohexanamido)propyl)(3-((S)-2-amino-6-guanidinohexanamido)propyl)amino)ethoxy)phenyl)butyl)carbamimidoyl)-6-chloropyrazine-2-carboxamide] | 49.0 | –
N=C(N)NC(=O)c1nc(Cl)c(N)nc1N [Amiloride, amiloride] | 30.4 | Change of tear volume (rats): approximate doubling of tear volume; Time tear volume remained elevated post-administration (rats): > 60 min; Penetration of the cornea (confocal x-z image, FIG. 16) [1]: can fully penetrate the cornea; Change of tear volume (rabbits): approximate doubling of tear volume; Time tear volume remained elevated post-administration (rabbits): > 60 min
N=C(NCCCCc1ccc(OCCN(CCCN)CCCN)cc1)NC(=O)c1nc(Cl)c(N)nc1N [Compound 45, 3,5-diamino-N—(N-(4-(4-(2-(bis(3-aminopropyl)amino)ethoxy)phenyl)butyl)carbamimidoyl)-6-chloropyrazine-2-carboxamide] | 42.3 | Hepatocyte Stability (amount of parent compound remaining) [2]: 75%; Hepatocyte Stability (amount of parent compound remaining) [3]: 83%
COC(=O)NC(=N)NCCCC[C@@H](N)C(=O)NCCCN(CCCNC(=O)[C@H](N)CCCCNC(=N)N)CCOc1ccc(CCCCNC(=N)NC(=O)c2nc(Cl)c(N)nc2N)cc1 [Compound 46, 3,5-diamino-N—(N-(4-(4-((R)-11-amino-17-(3-((R)-2-amino-6-guanidinohexanamido)propyl)-5-imino-3,12-dioxo-2-oxa-4,6,13,17-tetraazanonadecan-19-yloxy)phenyl)butyl)carbamimidoyl)-6-chloropyrazine-2-carboxamide] | 39.9 | –
N=C(N)NCCCC[C@@H](N)C(=O)NCCCN(CCCNC(=O)[C@H](N)CCCCNC(=N)N)CCOc1ccc(CCCCNC(=N)NC(=O)c2nc(Cl)c(N)nc2N)c2c1CCCC2 [Compound 133, (2R,2′R)—N,N′-(3,3′-(2-(4-(4-(3-(3,5-diamino-6-chloropyrazine-2-carbonyl)guanidino)butyl)-5,6,7,8-tetrahydronaphthalen-1-yloxy)ethylazanediyl)bis(propane-3,1-diyl))bis(2-amino-6-guanidinohexanamide)] | 45.7 | –
N=C(N)NCCCC[C@H](N)C(=O)NCCCN(CCCNC(=O)[C@@H](N)CCCCNC(=N)N)CCCN(CCCN(CCCNC(=O)[C@@H](N)CCCCNC(=N)N)CCCNC(=O)[C@@H](N)CCCCNC(=N)N)CCOc1ccc(CCCCNC(=N)NC(=O)c2nc(Cl)c(N)nc2N)cc1 [Compound 82, (2S,2′S,2″S,2′″S)—N,N′,N″,N′″-(3,3′,3″,3′″-(3,3′-(2-(4-(4-(3-(3,5-diamino-6-chloropyrazine-2-carbonyl)guanidino)butyl)phenoxy)ethylazanediyl)bis(propane-3,1-diyl))bis(azanetriyl)tetrakis(propane-3,1-diyl))tetrakis(2-amino-6-guanidinohexanamide)] | 49.8 | –
N=C(NCCCC[C@H](N)C(=O)NCCCN(CCCNC(=O)[C@@H](N)CCCCNC(=N)NC(=O)c1ccccc1)CCOc1ccc(CCCCNC(=N)NC(=O)c2nc(Cl)c(N)nc2N)cc1)NC(=O)c1ccccc1 [Compound 75, N,N′-((7S,19S)-7,19-diamino-13-(2-(4-(4-(3-(3,5-diamino-6-chloropyrazine-2-carbonyl)guanidino)butyl)phenoxy)ethyl)-1,25-diimino-8,18-dioxo-2,9,13,17,24-pentaazapentacosane-1,25-diyl)dibenzamide] | 38.2 | –
N=C(NCCCCc1ccc(OCCN(CCCNC(=O)[C@@H](N)CCCCNC(=O)[C@@H](N)CCCCN)CCCNC(=O)[C@@H](N)CCCCNC(=O)[C@@H](N)CCCCN)cc1)NC(=O)c1nc(Cl)c(N)nc1N [Compound 59, (S,2S,2′S)—N,N′-(3,3′-(2-(4-(4-(3-(3,5-diamino-6-chloropyrazine-2-carbonyl)guanidino)butyl)phenoxy)ethylazanediyl)bis(propane-3,1-diyl))bis(2-amino-6-((S)-2,6-diaminohexanamido)hexanamide)] | 39.7 | –
N=C(N)NCCCC[C@@H](N)C(=O)NCCCN(CCCNC(=O)[C@H](N)CCCCNC(=N)N)CCOc1ccc2cc(CCCCNC(=N)NC(=O)c3nc(Cl)c(N)nc3N)ccc2c1 [Compound 116, (2R,2′R)—N,N′-(3,3′-(2-(6-(4-(3-(3,5-diamino-6-chloropyrazine-2-carbonyl)guanidino)butyl)naphthalen-2-yloxy)ethylazanediyl)bis(propane-3,1-diyl))bis(2-amino-6-guanidinohexanamide)] | 40.9 | –
N=C(N)NCCCC[C@H](N)C(=O)NCCCC[C@H](N)C(=O)NCCCC[C@H](N)C(=O)NCCCN(CCCNC(=O)[C@@H](N)CCCCNC(=O)[C@@H](N)CCCCNC(=O)[C@@H](N)CCCCNC(=N)N)CCOc1ccc(CCCCNC(=N)NC(=O)c2nc(Cl)c(N)nc2N)cc1 [Compound 102, (S,S,2S,2′S)—N,N′-(3,3′-(2-(4-(4-(3-(3,5-diamino-6-chloropyrazine-2-carbonyl)guanidino)butyl)phenoxy)ethylazanediyl)bis(propane-3,1-diyl))bis(2-amino-6-((S)-2-amino-6-((S)-2-amino-6-guanidinohexanamido)hexanamido)hexanamide)] | 43.2 | –
N=C(N)NCCCC[C@H](N)C(=O)NCCCN(CCCNC(=O)[C@@H](N)CCCCNC(=N)N)CCCc1ccc(NC(=O)[C@@H](N)Cc2ccc(CCCCNC(=N)NC(=O)c3nc(Cl)c(N)nc3N)cc2)cc1 [Compound 145, (2S,2′S)—N,N′-(3,3′-(3-(4-((S)-2-amino-3-(4-(4-(3-(3,5-diamino-6-chloropyrazine-2-carbonyl)guanidino)butyl)phenyl)propanamido)phenyl)propylazanediyl)bis(propane-3,1-diyl))bis(2-amino-6-guanidinohexanamide)] | 44.7 | –
